Measured values as given in PubChem BioAssay AID1963853 (Molecular Pharmacology Branch, DTP, NCI, 2024).

Test system: 266295-075-R-J1-PDC spheroid viability
Assay: Anticancer human tumor 266295-075-R-J1-PDC patient-derived head and neck squamous carcinoma cell line growth inhibition [POLQ]
Conditions: spheroids with HUVEC and MSC; for IC50: curve of first compound; for viability, T/C: stronger effect = lower value
Method in brief: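 Three-cell-type spheroids modelling solid tumor plus stroma served as the readout system; POL inhibitors were tested individually and in combination, concentration ranges set by clinical Cmax where known.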

[1] = second compound 0.0316 µM, first compound 0.0316 µM
[2] = second compound 0.0316 µM, first compound 0.1 µM
[3] = second compound 0.0316 µM, first compound 0.316 µM
[4] = second compound 0.0316 µM, first compound 1 µM
[5] = second compound 0.0316 µM, first compound 3.16 µM
[6] = second compound 0.0316 µM, first compound 10 µM
[7] = second compound 0.1 µM, first compound 0.0316 µM
[8] = second compound 0.1 µM, first compound 0.1 µM
[9] = second compound 0.1 µM, first compound 0.316 µM
[10] = second compound 0.1 µM, first compound 1 µM
[11] = second compound 0.1 µM, first compound 3.16 µM
[12] = second compound 0.1 µM, first compound 10 µM
[13] = second compound 0.316 µM, first compound 0.0316 µM
[14] = second compound 0.316 µM, first compound 0.1 µM
[15] = second compound 0.316 µM, first compound 0.316 µM
[16] = second compound 0.316 µM, first compound 1 µM
[17] = second compound 0.316 µM, first compound 3.16 µM
[18] = second compound 0.316 µM, first compound 10 µM
[19] = second compound 1 µM, first compound 0.0316 µM
[20] = second compound 1 µM, first compound 0.1 µM
[21] = second compound 1 µM, first compound 0.316 µM
[22] = second compound 1 µM, first compound 1 µM
[23] = second compound 1 µM, first compound 3.16 µM
[24] = second compound 1 µM, first compound 10 µM
[25] = second compound 3.16 µM, first compound 0.0316 µM
[26] = second compound 3.16 µM, first compound 0.1 µM
[27] = second compound 3.16 µM, first compound 0.316 µM
[28] = second compound 3.16 µM, first compound 1 µM
[29] = second compound 3.16 µM, first compound 3.16 µM
[30] = second compound 3.16 µM, first compound 10 µM
[31] = second compound 10 µM, first compound 0.0316 µM
[32] = second compound 10 µM, first compound 0.1 µM
[33] = second compound 10 µM, first compound 0.316 µM
[34] = second compound 10 µM, first compound 1 µM
[35] = second compound 10 µM, first compound 3.16 µM
[36] = second compound 10 µM, first compound 10 µM
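Further: spheroids exposed to compounds for seven days before readout.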

In the case of `CC1COCCN1c1cc(C2(S(C)(=N)=O)CC2)nc(-c2ccnc3[nH]ccc23)n1` (centres undefined) + COC1C(OC(N)=O)C(O)C(Oc2ccc3c(O)c(NC(=O)c4ccc(O)c(CC=C(C)C)c4)c(=O)oc3c2C)OC1(C)C, the IC50 (second compound 0.0316 µM) is reported as greater than 10 µM, the IC50 (second compound 0.1 µM) is reported as greater than 10 µM and the IC50 (second compound 0.316 µM) is reported as greater than 10 µM. For the same compound, the IC50 (second compound 1 µM) was greater than 10 µM, the IC50 (second compound 3.16 µM) was greater than 10 µM and the IC50 (second compound 10 µM) was greater than 10 µM. For the same compound, the viability, T/C [1] was 101%, the viability, T/C [2] was 82.5% and the viability, T/C [3] was 105%. It also gave a viability, T/C [4] of 77.9%, a viability, T/C [5] of 74.9% and a viability, T/C [6] of 56.8%. The viability, T/C [7] was 82.6%, the viability, T/C [8] was 87.9% and the viability, T/C [9] was 89.6%. For the same compound, the viability, T/C [10] was 87.9%, the viability, T/C [11] was 82.7% and the viability, T/C [12] was 63.5%. The viability, T/C [13] was 89.2%, the viability, T/C [14] was 86.8% and the viability, T/C [15] was 101%. For the same compound, the viability, T/C [16] was 81.1%, the viability, T/C [17] was 94.7% and the viability, T/C [18] was 52.2%. The viability, T/C [19] was 95.4%, the viability, T/C [20] was 105% and the viability, T/C [21] was 95.2%. For the same compound, the viability, T/C [22] was 92.7%, the viability, T/C [23] was 78.2% and the viability, T/C [24] was 62.2%. For the same compound, the viability, T/C [25] was 105%, the viability, T/C [26] was 93.6% and the viability, T/C [27] was 91.9%. For the same compound, the viability, T/C [28] was 81.9%, the viability, T/C [29] was 79.1% and the viability, T/C [30] was 63.1%. It also gave a viability, T/C [31] of 92.4%, a viability, T/C [32] of 105% and a viability, T/C [33] of 88.9%. For the same compound, the viability, T/C [34] was 72.5%, the viability, T/C [35] was 68.8% and the viability, T/C [36] was 56.1%.
`COc1ccc([C@@H](O)c2cc(-c3ncnc4cc(N5CCOCC5)ccc34)c(F)cc2Cl)nn1` + COC1C(OC(N)=O)C(O)C(Oc2ccc3c(O)c(NC(=O)c4ccc(O)c(CC=C(C)C)c4)c(=O)oc3c2C)OC1(C)C gave an IC50 (second compound 0.0316 µM) of 3.45 µM, an IC50 (second compound 0.1 µM) of 4.06 µM and an IC50 (second compound 0.316 µM) of 4.31 µM. It also gave an IC50 (second compound 1 µM) of 3.67 µM, an IC50 (second compound 3.16 µM) of 2.48 µM and an IC50 (second compound 10 µM) of 2.74 µM. The viability, T/C [1] was 97.3%, the viability, T/C [2] was 84.5% and the viability, T/C [3] was 76.6%. The viability, T/C [4] was 62.7%, the viability, T/C [5] was 49.9% and the viability, T/C [6] was 40.7%. For the same compound, the viability, T/C [7] was 107%, the viability, T/C [8] was 105% and the viability, T/C [9] was 73.1%. It also gave a viability, T/C [10] of 74.5%, a viability, T/C [11] of 47.5% and a viability, T/C [12] of 43.7%. For the same compound, the viability, T/C [13] was 104%, the viability, T/C [14] was 85.9% and the viability, T/C [15] was 75.2%. The viability, T/C [16] was 64.7%, the viability, T/C [17] was 51.8% and the viability, T/C [18] was 43.4%. For the same compound, the viability, T/C [19] was 91.1%, the viability, T/C [20] was 96% and the viability, T/C [21] was 68.2%. The viability, T/C [22] was 73.6%, the viability, T/C [23] was 48.2% and the viability, T/C [24] was 39.8%. For the same compound, the viability, T/C [25] was 95.9%, the viability, T/C [26] was 84.6% and the viability, T/C [27] was 83.2%. It also gave a viability, T/C [28] of 62.2%, a viability, T/C [29] of 46% and a viability, T/C [30] of 40.2%. The viability, T/C [31] was 112%, the viability, T/C [32] was 75% and the viability, T/C [33] was 75.2%. For the same compound, the viability, T/C [34] was 63%, the viability, T/C [35] was 50.9% and the viability, T/C [36] was 37.3%.
